# Source: PubChem BioAssay AID248 (DTP/NCI, 2004)
# Values joined by “and” are separate entries in the source; they are usually repeats but may differ in a detail not shown here. Identical values can stand only once. Inconclusive results and toxic doses are left out.
# Tested on: L1210 leukemia ip in BDF1 mice, survival T/C
# Assay: NCI In Vivo Anticancer Drug Screen. Data for tumor model L1210 Leukemia (intraperitoneal) in B6D2F1 (BDF1) mice
# Settings: endpoint: mean survival time, higher = longer survival
# Summary of the method: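 Ratio derived from survival: compound-dosed mice over vehicle-dosed mice, all bearing a transplantable tumor.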
# [1] = dose: 100.0 mg/kg/injection, schedule: Q01DX009 (ip), vehicle: saline
# [2] = dose: 100.0 mg/kg/injection, schedule: Q04DX003 (ip), vehicle: saline
# [3] = dose: 200.0 mg/kg/injection, schedule: Q01DX009 (ip), vehicle: saline
# [4] = dose: 200.0 mg/kg/injection, schedule: Q04DX003 (ip), vehicle: saline
# [5] = dose: 400.0 mg/kg/injection, schedule: Q01DX009 (ip), vehicle: saline
# [6] = dose: 400.0 mg/kg/injection, schedule: Q04DX003 (ip), vehicle: saline
# [7] = dose: 50.0 mg/kg/injection, schedule: Q01DX009 (ip), vehicle: saline
# [8] = dose: 100.0 mg/kg/injection, schedule: Q01DX009 (ip), vehicle: Klucel (hydroxypropylcellulose) (HPC)
# [9] = dose: 200.0 mg/kg/injection, schedule: Q01DX009 (ip), vehicle: Klucel (hydroxypropylcellulose) (HPC)
# [10] = dose: 400.0 mg/kg/injection, schedule: Q01DX009 (ip), vehicle: Klucel (hydroxypropylcellulose) (HPC)
# [11] = dose: 100.0 mg/kg/injection, schedule: Q04DX003 (ip), vehicle: Klucel (hydroxypropylcellulose) (HPC)
# [12] = dose: 200.0 mg/kg/injection, schedule: Q04DX003 (ip), vehicle: Klucel (hydroxypropylcellulose) (HPC)
# [13] = dose: 400.0 mg/kg/injection, schedule: Q04DX003 (ip), vehicle: Klucel (hydroxypropylcellulose) (HPC)
# [14] = dose: 100.0 mg/kg/injection, schedule: Q01DX001 (ip), vehicle: saline
# [15] = dose: 200.0 mg/kg/injection, schedule: Q01DX001 (ip), vehicle: saline
# [16] = dose: 400.0 mg/kg/injection, schedule: Q01DX001 (ip), vehicle: saline
# [17] = dose: 100.0 mg/kg/injection, schedule: Q01DX001 (ip), vehicle: Klucel (hydroxypropylcellulose) (HPC)
# [18] = dose: 200.0 mg/kg/injection, schedule: Q01DX001 (ip), vehicle: Klucel (hydroxypropylcellulose) (HPC)
# [19] = dose: 400.0 mg/kg/injection, schedule: Q01DX001 (ip), vehicle: Klucel (hydroxypropylcellulose) (HPC)
# [20] = dose: 100.0 mg/kg/injection, schedule: Q04DX003 (ip), vehicle: saline with Tween-80
# [21] = dose: 200.0 mg/kg/injection, schedule: Q04DX003 (ip), vehicle: saline with Tween-80
# [22] = dose: 400.0 mg/kg/injection, schedule: Q04DX003 (ip), vehicle: saline with Tween-80
# [23] = dose: 50.0 mg/kg/injection, schedule: Q01DX001 (ip), vehicle: saline
structure (smiles),measurement,setting,value
c1ccc2c3c(ccc2c1)Sc1ccc2ccccc2c1N3,T/C,[1],102 % of control
same,T/C,[2],97 % of control
same,T/C,[3],98 % of control
same,T/C,[4],111 % of control
same,T/C,[5],93 % of control
same,T/C,[6],95 % of control
N#Cc1cnc2nc(N)nc(N)c2c1,T/C,[7],95 % of control and 105 % of control
same,T/C,[1],95 % of control and 91 % of control
same,T/C,[2],95 % of control
same,T/C,[3],95 % of control and 98 % of control and 90 % of control
same,T/C,[4],106 % of control
CC(=O)Oc1c(OC(C)=O)c(-c2c(C)cc(C)c(Br)c2C)c(OC(C)=O)c(OC(C)=O)c1-c1c(C)cc(C)c(Br)c1C,T/C,[8],103 % of control
same,T/C,[9],97 % of control
same,T/C,[10],103 % of control
CC(O)C(O)CC(/C=N/NC(=O)c1ccccc1)=N/NC(=O)c1ccccc1 (stereo not given),T/C,[11],107 % of control
same,T/C,[12],115 % of control
same,T/C,[13],109 % of control
CSc1n[n+](-c2ccccc2)cs1,T/C,[14],103 % of control
same,T/C,[15],103 % of control
same,T/C,[16],100 % of control
CCC(=O)c1ccc(-c2ccccc2)cc1,T/C,"dose: 175.0 mg/kg/injection, schedule: Q04DX002 (ip), vehicle: Klucel (hydroxypropylcellulose) (HPC)",102 % of control
same,T/C,"dose: 350.0 mg/kg/injection, schedule: Q04DX002 (ip), vehicle: Klucel (hydroxypropylcellulose) (HPC)",98 % of control
COC(OC)c1nc(N)[nH]c(=O)c1Cc1ccc([N+](=O)[O-])cc1,T/C,[17],110 % of control
same,T/C,[18],102 % of control
same,T/C,[19],96 % of control
CCOc1ccc(-n2cnc3ccccc3c2=O)cc1CN(CCCl)CCCl,T/C,[17],100 % of control
same,T/C,[18],102 % of control
same,T/C,[19],100 % of control
Cc1ccn2c(=O)c(CCBr)c(C)nc2c1,T/C,"dose: 4.7 mg/kg/injection, schedule: Q01DX009 (ip), vehicle: saline",101 % of control
same,T/C,"dose: 9.4 mg/kg/injection, schedule: Q01DX009 (ip), vehicle: saline",100 % of control
same,T/C,"dose: 18.8 mg/kg/injection, schedule: Q01DX009 (ip), vehicle: saline",91 % of control
same,T/C,"dose: 18.8 mg/kg/injection, schedule: Q04DX003 (ip), vehicle: saline",94 % of control
NC(CSCCc1ccc2ccccc2n1)C(=O)O (stereo not given),T/C,[11],100 % of control
same,T/C,[12],95 % of control
same,T/C,[13],99 % of control
CC(C#N)(CCC(=O)O)N=NC(C)(C#N)CCC(=O)O (stereo not given),T/C,[14],102 % of control
same,T/C,[15],103 % of control
same,T/C,[16],108 % of control
O=S(=O)(F)c1ccccc1S(=O)(=O)Cl,T/C,"dose: 25.0 mg/kg/injection, schedule: Q04DX003 (ip), vehicle: Klucel (hydroxypropylcellulose) (HPC)",97 % of control
same,T/C,"dose: 50.0 mg/kg/injection, schedule: Q04DX003 (ip), vehicle: Klucel (hydroxypropylcellulose) (HPC)",92 % of control
same,T/C,"dose: 100.0 mg/kg/injection, schedule: Q01DX001 (ip), vehicle: carboxymethylcellulose (CMC)",95 % of control
same,T/C,[11],92 % of control
CC1(C)N=C(N)N=C(N)N1c1ccc(CCC(=O)Nc2ccc(S(=O)(=O)F)cc2)cc1,T/C,"dose: 0.8 mg/kg/injection, schedule: Q01DX009 (ip), vehicle: saline",97 % of control
same,T/C,"dose: 4.0 mg/kg/injection, schedule: Q01DX009 (ip), vehicle: saline",105 % of control
same,T/C,"dose: 8.8 mg/kg/injection, schedule: Q01DX009 (ip), vehicle: saline",117 % of control
same,T/C,"dose: 13.0 mg/kg/injection, schedule: Q01DX009 (ip), vehicle: saline",121 % of control
same,T/C,"dose: 20.0 mg/kg/injection, schedule: Q01DX009 (ip), vehicle: saline",121 % of control
same,T/C,[7],163 % of control
same,T/C,"dose: 75.0 mg/kg/injection, schedule: Q## X003 (ip), vehicle: saline",122 % of control
same,T/C,[3],100 % of control
same,T/C,"dose: 600.0 mg/kg/injection, schedule: Q## X003 (ip), vehicle: saline",102 % of control
Cc1cc(C)c(CC(C)(CO)CO)c(C)c1CC(C)(CO)CO,T/C,[8],107 % of control
same,T/C,[9],98 % of control
same,T/C,[10],96 % of control
CCOC(=O)C(=N\Nc1cc(C)ccc1C)/C(C)=N\NC(N)=S,T/C,"dose: 75.0 mg/kg/injection, schedule: Q01DX001 (ip), vehicle: saline",87 % of control
same,T/C,"dose: 150.0 mg/kg/injection, schedule: Q01DX001 (ip), vehicle: saline",97 % of control
same,T/C,"dose: 300.0 mg/kg/injection, schedule: Q01DX001 (ip), vehicle: saline",97 % of control
C1CC2OC2C1 (stereo not given),T/C,[1],104 % of control
same,T/C,[20],97 % of control
same,T/C,[3],108 % of control
same,T/C,[21],100 % of control
same,T/C,[5],105 % of control
same,T/C,[22],90 % of control
CC(C)C(=O)CCC1CCCCC1,T/C,"dose: 100.0 mg/kg/injection, schedule: Q01DX001 (ip), vehicle: saline with Tween-80",100 % of control
same,T/C,"dose: 200.0 mg/kg/injection, schedule: Q01DX001 (ip), vehicle: saline with Tween-80",100 % of control
same,T/C,"dose: 400.0 mg/kg/injection, schedule: Q01DX001 (ip), vehicle: saline with Tween-80",97 % of control
CNC(=O)NCCOC(=O)NC,T/C,[1],94 % of control
same,T/C,[2],96 % of control
same,T/C,[3],98 % of control
same,T/C,[4],101 % of control
same,T/C,[5],107 % of control
same,T/C,[6],101 % of control
CC(C)COC(=O)Cc1cccc2ccccc12,T/C,"dose: 222.0 mg/kg/injection, schedule: Q01DX Z (ip), vehicle: saline",96 % of control
same,T/C,"dose: 333.0 mg/kg/injection, schedule: Q01DX Z (ip), vehicle: saline",96 % of control
same,T/C,"dose: 500.0 mg/kg/injection, schedule: Q01DX Z (ip), vehicle: saline",94 % of control
CC1Cn2ccc(=O)nc2S1 (stereo not given),T/C,[23],112 % of control
same,T/C,[14],110 % of control
same,T/C,[15],105 % of control
COc1cc(Br)c(CC2=[N+](C)CCc3cc(OC)c(OCc4ccccc4)cc32)cc1OC,T/C,[20],98 % of control
same,T/C,[21],101 % of control
same,T/C,[22],101 % of control
OCC(O)C(O)C(O)C(c1ccc(F)cc1)c1ccc(F)cc1 (stereo not given),T/C,[23],97 % of control
same,T/C,[14],100 % of control
same,T/C,[15],100 % of control
same,T/C,[16],103 % of control
COc1c(N)cc2c(c1C)OCOC2,T/C,[14],97 % of control
same,T/C,[15],100 % of control
same,T/C,[16],105 % of control
CS(=O)(=O)OCCCN(CCCOS(C)(=O)=O)c1ccc(C=Nc2ccc(-c3csc(COc4ccc(Br)cc4)n3)cc2)cc1,T/C,"dose: 100.0 mg/kg/injection, schedule: Q01DX009 (ip), vehicle: saline with Tween-80",95 % of control
same,T/C,"dose: 200.0 mg/kg/injection, schedule: Q01DX009 (ip), vehicle: saline with Tween-80",95 % of control
O=C(Nc1ncccn1)C(F)(F)F,T/C,[23],95 % of control
same,T/C,[14],92 % of control
same,T/C,[15],95 % of control
same,T/C,[16],90 % of control
CCCCC1=CC(=O)C2CCCCC2C1=O (stereo not given),T/C,[17],102 % of control
same,T/C,[18],105 % of control
same,T/C,[19],92 % of control
N#CC1(C(=O)c2ccccc2)C=Cc2ccccc2N1C(=O)c1ccccc1 (stereo not given),T/C,"dose: 100.0 mg/kg/injection, schedule: Q01DX001 (ip), vehicle: steriod suspending solution",87 % of control
same,T/C,"dose: 200.0 mg/kg/injection, schedule: Q01DX001 (ip), vehicle: steriod suspending solution",90 % of control
same,T/C,"dose: 400.0 mg/kg/injection, schedule: Q01DX001 (ip), vehicle: steriod suspending solution",92 % of control
